As usually defined, the IC50 is the concentration that inhibits the measured activity by half. As usually defined, the inhibition is how much of the control response was suppressed.

The target in one experiment is full-length human PLD1 (Homo sapiens (Human), UniProt Q13393). Kind of experiment: Evaluation of human PLD1 enzyme inhibitory activity (Amplex Red / choline oxidase fluorescence). As to conditions: for IC50: full-length human PLD1 enzyme, read-out: PLD1 IC50. It is filed as biochemical. The method, boiled down:
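Fluorescence read-out couples choline to Amplex Red via choline oxidase and peroxidase after a 60 min room-temperature reaction. Enzyme: FLAG-tagged full-length human PLD1 from Expi293F cells, anti-FLAG purified; substrate diheptanoyl phosphatidylcholine; HEPES pH 7.5 assay buffer with 0.01% NP-40, 0.1% BSA, 5% DMSO final.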

Another experiment addresses full-length human PLD2 (Homo sapiens (Human), UniProt O14939). Kind of experiment: Evaluation of human PLD2 enzyme inhibitory activity (Amplex Red / choline oxidase fluorescence). It is filed as biochemical. As to conditions: for IC50: full-length human PLD2 enzyme, read-out: PLD2 IC50. The method, boiled down:
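Released choline was read by Amplex Red fluorescence coupled to choline oxidase and HRP after a 60 min room-temperature reaction. Substrate was diheptanoyl phosphatidylcholine, added as a 6 mmol/L solution, and enzyme was FLAG-tagged full-length human PLD2 from Expi293F, added as a 6 nmol/L solution. Buffer was 50 mM HEPES pH 7.5 with 5% final DMSO.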

Like-named read-outs stand apart in the source and are kept apart here. Some results are limits rather than exact numbers.

Sequence of full-length human PLD2 (O14939 whole entry): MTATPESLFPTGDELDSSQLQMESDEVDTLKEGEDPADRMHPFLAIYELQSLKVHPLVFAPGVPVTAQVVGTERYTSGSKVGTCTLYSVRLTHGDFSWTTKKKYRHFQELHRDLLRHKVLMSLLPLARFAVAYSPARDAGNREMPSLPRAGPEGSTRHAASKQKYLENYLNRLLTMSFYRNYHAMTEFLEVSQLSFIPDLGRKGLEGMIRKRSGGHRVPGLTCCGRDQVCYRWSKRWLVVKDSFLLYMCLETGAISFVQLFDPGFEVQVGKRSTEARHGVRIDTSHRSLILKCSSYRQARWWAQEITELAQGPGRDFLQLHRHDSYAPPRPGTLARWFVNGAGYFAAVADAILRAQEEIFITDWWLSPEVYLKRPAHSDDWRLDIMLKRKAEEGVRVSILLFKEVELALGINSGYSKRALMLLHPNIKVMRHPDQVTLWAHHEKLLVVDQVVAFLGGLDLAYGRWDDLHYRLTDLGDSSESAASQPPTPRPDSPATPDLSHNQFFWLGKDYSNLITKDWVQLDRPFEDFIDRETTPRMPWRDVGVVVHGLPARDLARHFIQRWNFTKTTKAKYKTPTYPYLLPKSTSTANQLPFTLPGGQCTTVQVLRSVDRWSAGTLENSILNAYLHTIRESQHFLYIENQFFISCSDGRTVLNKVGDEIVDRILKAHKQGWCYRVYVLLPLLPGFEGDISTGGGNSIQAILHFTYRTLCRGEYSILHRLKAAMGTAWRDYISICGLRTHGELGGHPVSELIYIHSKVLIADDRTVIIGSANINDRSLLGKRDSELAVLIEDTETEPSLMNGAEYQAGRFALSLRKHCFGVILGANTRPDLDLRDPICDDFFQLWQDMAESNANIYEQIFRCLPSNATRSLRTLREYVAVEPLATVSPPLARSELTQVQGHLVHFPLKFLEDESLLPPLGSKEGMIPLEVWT
Sequence of full-length human PLD1 (Q13393 other isoform, or with tags, fused parts or gaps): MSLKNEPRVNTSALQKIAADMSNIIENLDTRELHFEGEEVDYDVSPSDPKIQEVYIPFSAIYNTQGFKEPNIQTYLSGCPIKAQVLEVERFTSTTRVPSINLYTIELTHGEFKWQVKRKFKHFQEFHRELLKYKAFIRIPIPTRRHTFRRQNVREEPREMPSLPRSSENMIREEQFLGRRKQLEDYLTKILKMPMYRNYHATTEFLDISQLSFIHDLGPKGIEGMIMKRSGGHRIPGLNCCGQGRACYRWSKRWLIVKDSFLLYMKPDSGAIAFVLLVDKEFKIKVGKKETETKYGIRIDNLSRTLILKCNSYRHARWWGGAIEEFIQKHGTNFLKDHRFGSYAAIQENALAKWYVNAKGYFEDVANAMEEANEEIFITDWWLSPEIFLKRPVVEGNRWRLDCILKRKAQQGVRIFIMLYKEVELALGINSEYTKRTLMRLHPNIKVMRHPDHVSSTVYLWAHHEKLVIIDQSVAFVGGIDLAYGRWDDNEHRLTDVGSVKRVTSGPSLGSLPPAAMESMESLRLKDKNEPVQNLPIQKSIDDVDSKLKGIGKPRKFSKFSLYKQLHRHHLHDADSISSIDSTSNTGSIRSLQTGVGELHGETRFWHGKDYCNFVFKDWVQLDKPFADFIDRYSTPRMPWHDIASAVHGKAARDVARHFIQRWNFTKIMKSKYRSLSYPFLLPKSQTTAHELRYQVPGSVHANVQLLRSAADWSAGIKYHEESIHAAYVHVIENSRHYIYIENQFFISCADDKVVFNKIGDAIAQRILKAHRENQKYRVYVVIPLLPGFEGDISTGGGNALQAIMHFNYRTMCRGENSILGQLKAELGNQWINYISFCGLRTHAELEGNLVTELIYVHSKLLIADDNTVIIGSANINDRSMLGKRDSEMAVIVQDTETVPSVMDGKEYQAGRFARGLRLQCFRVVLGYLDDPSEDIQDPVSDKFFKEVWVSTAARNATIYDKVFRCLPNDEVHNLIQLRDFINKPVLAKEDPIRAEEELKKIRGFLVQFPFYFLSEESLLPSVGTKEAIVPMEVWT

`C[C@H](O)C(=O)N[C@@H](C)C[C@H]1CC[C@]2(CC1)OC(=O)NN=C2c1ccc(F)cc1Br` [Example 29]: the IC50 at full-length human PLD1 is 999 nM; on full-length human PLD2, 1720 nM.
In the case of `CC(=O)C(=O)N[C@@H](C)C[C@H]1CC[C@]2(CC1)OC(=O)NN=C2c1ccc(F)cc1Br` [Example 30], the figures for the IC50 on full-length human PLD1 and at full-length human PLD2 were 123 nM and 153 nM, respectively.
Regarding `Cc1cc(C(=O)N[C@@H](C)C[C@H]2CC[C@]3(CC2)OC(=O)NN=C3c2ccc(S(C)(=O)=O)cc2Br)[nH]n1` [Example 31], the IC50 on full-length human PLD1 is 24 nM; on full-length human PLD2 it was under 10 nM.
Regarding `C[C@@H](C[C@H]1CC[C@]2(CC1)OC(=O)NN=C2c1ccc(S(C)(=O)=O)cc1Br)NC(=O)c1cc2cc(F)ccc2[nH]1` [Example 32], the IC50 is 32 nM at full-length human PLD1 and under 10 nM at full-length human PLD2.
For `CNC(=O)C(=O)N[C@@H](C)C[C@H]1CC[C@]2(CC1)OC(=O)NN=C2c1ccc(S(C)(=O)=O)cc1Br` [Example 33], the values for the IC50 on full-length human PLD1 and at full-length human PLD2 were 25 nM and under 10 nM, respectively.
As for `C[C@@H](C[C@H]1CC[C@]2(CC1)OC(=O)NN=C2c1ccc(F)cc1Br)NC(=O)OC(C)(C)C` [Example 34], the inhibition at 10 µM on full-length human PLD1 (10 μM compound, read-out: PLD1 inhibition rate at 10 μM) amounted to 36%; at full-length human PLD1 (read-out: inhibition rate of PLD1 at 10 μM compound), 36%; at full-length human PLD2 (10 μM compound, read-out: PLD2 inhibition rate at 10 μM), 17%; on full-length human PLD2 (read-out: inhibition rate of PLD2 at 10 μM compound) it was 17%.
Consider `C[C@@H](C[C@H]1CC[C@]2(CC1)OC(=O)NN=C2c1ccc(F)cc1Br)NC(=O)C1(F)CC1` [Example 35], for which the IC50 on full-length human PLD1 amounted to 257 nM; on full-length human PLD2, 367 nM.
The corresponding values for `C[C@@H](C[C@H]1CC[C@]2(CC1)OC(=O)NN=C2c1ccc(F)cc1Br)NC(=O)C1(O)CC1` [Example 36] are 221 nM and 137 nM.
Turning to `C[C@@H](C[C@H]1CC[C@]2(CC1)OC(=O)NN=C2c1ccc(F)cc1Br)NC(=O)c1cc(Cl)no1` [Example 37], the IC50 on full-length human PLD1 and at full-length human PLD2 was under 10 nM in each case.
As for `C[C@@H](C[C@H]1CC[C@]2(CC1)OC(=O)NN=C2c1ccc(F)cc1Br)NC(=O)c1ccccc1` [Example 40], the IC50 at full-length human PLD1 is 13 nM; at full-length human PLD2, under 10 nM.
`C[C@@H](C[C@H]1CC[C@]2(CC1)OC(=O)NN=C2c1ccc(F)cc1Br)NC(=O)CC#N` [Example 41]: the figures for the IC50 at full-length human PLD1 and at full-length human PLD2 were 229 nM and 500 nM, respectively.
On the same counts, the results for `CCCC(=O)N[C@@H](C)C[C@H]1CC[C@]2(CC1)OC(=O)NN=C2c1ccc(F)cc1Br` [Example 42] are 247 nM and 261 nM.
As for `C[C@@H](C[C@H]1CC[C@]2(CC1)OC(=O)NN=C2c1ccc(F)cc1Br)NC(=O)CCS(C)(=O)=O` [Example 43], the IC50 at full-length human PLD1 is 221 nM; at full-length human PLD2 it was 184 nM.
With `CNC(=O)C(=O)N[C@@H](C)C[C@H]1CC[C@]2(CC1)OC(=O)NN=C2c1ccc(F)cc1Cl` [Example 44], the results for the IC50 on full-length human PLD1 and on full-length human PLD2 were 18 nM and under 10 nM, respectively.
The corresponding values for `Cc1cc(C(=O)N[C@@H](C)C[C@H]2CC[C@]3(CC2)OC(=O)NN=C3c2ccc(F)cc2Cl)[nH]n1` [Example 45] are 27 nM and 23 nM.
As for `C[C@@H](C[C@H]1CC[C@]2(CC1)OC(=O)NN=C2c1ccc(F)cc1Cl)NC(=O)c1cc2ccccc2o1` [Example 46], the figures for the concentration for half-maximal inhibition (IC50) on full-length human PLD1 and at full-length human PLD2 were 12 nM and under 10 nM, respectively.
Turning to `CNC(=O)C(=O)NCC[C@H]1CC[C@]2(CC1)OC(=O)NN=C2c1ccc(F)cc1Br` [Example 47], the IC50 at full-length human PLD1 was 119 nM; on full-length human PLD2, under 10 nM.
As to `C[C@@H](C[C@H]1CC[C@]2(CC1)OC(=O)NN=C2c1ccc(S(C)(=O)=O)cc1Br)NC(=O)c1cc(Cl)no1` [Example 48], the IC50 is 14 nM on full-length human PLD1 and under 10 nM at full-length human PLD2.
In the case of `C[C@@H](C[C@H]1CC[C@]2(CC1)OC(=O)NN=C2c1ccc(S(C)(=O)=O)cc1Br)NC(=O)c1ccccc1` [Example 49], the values for the half-maximal inhibitory concentration (IC50) at full-length human PLD1 and on full-length human PLD2 were 31 nM and 11 nM, respectively.
On to `C[C@@H](C[C@H]1CC[C@]2(CC1)OC(=O)NN=C2c1ccc(Br)cc1)NC(=O)c1cc2ccccc2o1` [Example 50], for which the values for the IC50 at full-length human PLD1 and at full-length human PLD2 were 33 nM and 51 nM, respectively.
With `CBC(=O)C(=O)N[C@@H](C)C[C@H]1CC[C@]2(CC1)OC(=O)NN=C2c1ccc(S(C)(=O)=O)cc1Cl` [Example 51], the half-inhibitory concentration (IC50) was found to be 33 nM on full-length human PLD1 and 16 nM at full-length human PLD2.
The corresponding values for `C[C@@H](C[C@H]1CC[C@]2(CC1)OC(=O)NN=C2c1ccc(S(C)(=O)=O)cc1Cl)NC(=O)c1cc(Cl)no1` [Example 52] are 21 nM and under 10 nM.
The corresponding values for `C[C@@H](C[C@H]1CC[C@]2(CC1)OC(=O)NN=C2c1ccc(S(C)(=O)=O)cc1Cl)NC(=O)c1cc2ccccc2o1` [Example 53] are 19 nM and under 10 nM.
With `CNC(=O)C(=O)N[C@@H](C)C[C@H]1CC[C@]2(CC1)OC(=O)NN=C2c1ccc(F)cc1OC` [Example 54], the IC50 at full-length human PLD1 is 20 nM; at full-length human PLD2, under 10 nM.
On to `CNC(=O)C(=O)N[C@@H](C)C[C@H]1CC[C@]2(CC1)OC(=O)NN=C2c1ccc(F)cc1C` [Example 55], for which the IC50 is 15 nM at full-length human PLD1 and under 10 nM on full-length human PLD2.
In the case of `CNC(=O)C(=O)N[C@@H](C)C[C@H]1CC[C@]2(CC1)OC(=O)NN=C2c1ccc(F)cc1C(F)(F)F` [Example 56], the half-maximal inhibitory concentration (IC50) turned out to be 26 nM on full-length human PLD1 and 17 nM at full-length human PLD2.
With `CNC(=O)C(=O)N[C@@H](C)C[C@H]1CC[C@]2(CC1)OC(=O)NN=C2c1ccc(C#N)cc1Br` [Example 57, N^1—((S)-1-(cis-5-(2-bromo-4-cyanophenyl)-2-oxo-1-oxa-3,4-diazaspiro[5.5]undec-4-en-9-yl)propan-2-yl)-N^2-methyloxamide], the values for the IC50 on full-length human PLD1 and at full-length human PLD2 were 16 nM and under 10 nM, respectively.
`CNC(=O)C(=O)N[C@@H](C)C[C@H]1CC[C@]2(CC1)OC(=O)NN=C2c1ccc(OC)cc1Br` [Example 58]: the IC50 on full-length human PLD1 is 14 nM; at full-length human PLD2, under 10 nM.
Regarding `COc1ccc(C2=NNC(=O)O[C@]23CC[C@@H](C[C@H](C)NC(=O)c2cc(Cl)no2)CC3)c(Br)c1` [Example 59], the IC50 on full-length human PLD1 and on full-length human PLD2 was under 10 nM each time.
Regarding `CNC(=O)C(=O)N[C@@H](C)C[C@H]1CC[C@]2(CC1)OC(=O)NN=C2c1ccc(Br)cc1Br` [Example 60], the IC50 on full-length human PLD1 and at full-length human PLD2 was under 10 nM each time.
Take `C[C@@H](C[C@H]1CC[C@]2(CC1)OC(=O)NN=C2c1ccc(F)cc1Cl)NC(=O)c1cc2cc(F)ccc2o1` [Example 61]: the IC50 at full-length human PLD1 came to 14 nM; on full-length human PLD2, 11 nM.
On to `C[C@@H](C[C@H]1CC[C@]2(CC1)OC(=O)NN=C2c1ccc(F)cc1Cl)NC(=O)c1cc2cc(S(C)(=O)=O)ccc2[nH]1` [Example 62], for which the IC50 was determined as 140 nM on full-length human PLD1 and 223 nM on full-length human PLD2.
On to `C[C@@H](C[C@H]1CC[C@]2(CC1)OC(=O)NN=C2c1ccc(F)cc1Cl)NC(=O)c1cc(Cl)no1` [Example 63], for which the IC50 at full-length human PLD1 and at full-length human PLD2 was under 10 nM each time.
In the case of `CNC(=O)C(=O)N[C@@H](C)C[C@H]1CC[C@]2(CC1)OC(=O)NN=C2c1ccc(F)cc1C1CC1` [Example 64], the 50% inhibitory concentration (IC50) at full-length human PLD1 is 18 nM; at full-length human PLD2, under 10 nM.
Turning to `C[C@@H](C[C@H]1CC[C@]2(CC1)OC(=O)NN=C2c1ccc(F)cc1C1CC1)NC(=O)c1cc(Cl)no1` [Example 65], the IC50 at full-length human PLD1 and at full-length human PLD2 was under 10 nM throughout.
Regarding `CNC(=O)C(=O)N[C@@H](C)C[C@H]1CC[C@]2(CC1)OC(=O)NN=C2c1ccc(S(=O)(=O)C(C)C)cc1Br` [Example 66], the IC50 is 16 nM at full-length human PLD1 and under 10 nM at full-length human PLD2.
`CC(C)S(=O)(=O)c1ccc(C2=NNC(=O)O[C@]23CC[C@@H](C[C@H](C)NC(=O)c2cc(Cl)no2)CC3)c(Br)c1` [Example 67]: the IC50 on full-length human PLD1 and on full-length human PLD2 was under 10 nM throughout.
Take `CNC(=O)C(=O)N[C@@H](C)C[C@H]1CC[C@]2(CC1)OC(=O)NN=C2c1ccnn1C` [Example 68]: the IC50 at full-length human PLD1 stood at 2030 nM; at full-length human PLD2, 4660 nM.
Consider `COc1cc(C(=O)N[C@@H](C)C[C@H]2CC[C@]3(CC2)OC(=O)NN=C3c2ccc(F)cc2Br)on1` [Example 69], for which the IC50 at full-length human PLD1 and at full-length human PLD2 was under 10 nM each time.
As for `C[C@@H](C[C@H]1CC[C@]2(CC1)OC(=O)NN=C2c1ccc(F)cc1Cl)NC(=O)C(=O)NC1CC1` [Example 70], the concentration for half-maximal inhibition (IC50) was 28 nM at full-length human PLD1 and 20 nM on full-length human PLD2.
In the case of `C[C@@H](C[C@H]1CC[C@]2(CC1)OC(=O)NN=C2c1ccc(C#N)cc1Br)NC(=O)c1cc(Cl)no1` [Example 71], the IC50 at full-length human PLD1 and at full-length human PLD2 was under 10 nM throughout.
As to `C[C@@H](C[C@H]1CC[C@]2(CC1)OC(=O)NN=C2c1ccc(F)cc1Br)NC(=O)c1cc(C(F)(F)F)n[nH]1` [Example 72], the IC50 stood at 34 nM on full-length human PLD1 and 24 nM at full-length human PLD2.
Regarding `CNC(=O)C(=O)N[C@@H](C)C[C@H]1CC[C@]2(CC1)OC(=O)NN=C2c1ccc(-c2ccccc2)cc1-c1ccccc1` [Example 73], the IC50 on full-length human PLD1 came out at 23 nM; on full-length human PLD2, 15 nM.
For the molecule `CNC(=O)C(=O)N[C@@H](C)C[C@H]1CC[C@]2(CC1)OC(=O)NN=C2c1ccccc1SC` [Example 74], the IC50 at full-length human PLD1 and at full-length human PLD2 was under 10 nM in each case.
In the case of `CNC(=O)C(=O)N[C@@H](C)C[C@H]1CC[C@]2(CC1)OC(=O)NN=C2c1ccccc1S(C)(=O)=O` [Example 75], the IC50 on full-length human PLD1 worked out at 1630 nM; at full-length human PLD2, 1990 nM.
